Assay results taken from patent US11730746B2, “17beta-heterocyclyl-digitalis like compounds for the treatment of heart failure” (priority 2018, dated 2023).
Where “and” joins values, the source holds several entries; their conditions need not be identical. Identical values can stand only once.

Experiments:
Dopamine D3 = molecular target: T1, Dopamine D3 (Homo sapiens, UniProt P35462); assay: Receptor binding 219800
T1 construct: Eurofins 219800; host or cells: crude membrane preparation
Description: (§1) Radioligand binding to a panel of receptors was carried out by Eurofins on crude membrane preparations according to published procedures and by using appropriate reference standard (Eurofins, CVie 101 compound code PT #1207859, study #AB76416, quote #68407-1, for Cvie Therapeutics Limited, Taiwan (R.OC.) on Mar. 5, 2017). CVie 101 was tested at the concentration of 10 μM. No significant interaction was documented, except for Sodium Channel, site 2 from rat (cat #279510), where a significant response (≥50%) was noted (Table 7).

Adrenergic β2 = molecular target: T2, Adrenergic β2 (Homo sapiens, UniProt P07550); assay: Receptor binding 204110
T2 construct: Eurofins 204110; host or cells: crude membrane preparation
Description: as §1

[1] = test system: guinea pig isolated cardiomyocytes; assay: SR Ca2+ uptake function (loading protocol) in isolated ventricular cardiomyocytes; type: cell-based; conditions: 100 nM
Description: The compounds were characterized for their effect on (i) SR Ca^2+ uptake function, (ii) action potential (AP) in myocytes freshly dissociated from guinea-pig ventricles by retrograde coronary perfusion with enzymatic solution (Rocchetti M et al. J Pharmacol Exper Therap 2005; 313(1):207-215).
Drug effects on SR Ca^2+ uptake rate were evaluated with an SR “loading protocol” specifically devised to rule out the contribution of the Na/Ca exchanger (NCX) and to assess the uptake rate starting at low levels of SR Ca^2+ loading. Under voltage-clamp conditions, intracellular Ca^2+ concentration was dynamically measured by epifluorescence (Fluo4-AM). Membrane current, whose time-dependent component mainly reflected ICaL, was simultaneously recorded. The SR loading protocol consisted in emptying the SR (by a brief caffeine pulse) and then progressively refilling it by voltage steps activating Ca^2+ influx through the sarcolemmal Ca^2+ channel (ICaL). NCX was blocked by omission of Na^+ from intracellular and extracellular solutions. The procedure is in agreement with published methods, with minor modifications (Rocchetti M et al. J Pharmacol Exper Therap 2005; 313(1):207-215).
Drug effects on SR Ca^2+ uptake were analysed by considering multiple parameters: 1) the rate at which Ca^2+ transient (CaT) amplitude increased during the loading protocol, which reflects the rate at which the SR refilled and 2) the time constant of cytosolic Ca^2+ decay (Tdecay) within each pulse, reflecting net Ca^2+ transport rate (by SERCA2a) across the SR membrane (a decrease in Tdecay corresponds to enhanced SR Ca^2+ uptake).

Sigma σ2 = molecular target: T3, Sigma σ2 (Homo sapiens, UniProt Q5BJF2); assay: Receptor binding 299007
T3 construct: Eurofins (contract assay) 299007
Description: as §1

Monoamine Oxidase MAO-A = molecular target: T4, Monoamine Oxidase MAO-A (Homo sapiens, UniProt P21397); assay: Eurofins panel 140010; type: biochemical
T4 construct: Eurofins 140010
Description: as §1

[2] = molecular target: T5, Peptidase, Angiotensin Converting Enzyme (Oryctolagus cuniculus, UniProt P12822); assay: Eurofins panel 107300; type: biochemical, rabbit
T5 construct: Eurofins 107300

Adrenergic α2A = molecular target: T6, Adrenergic α2A (Homo sapiens, UniProt P08913); assay: Receptor binding 203630
T6 construct: Eurofins 203630; host or cells: crude membrane preparation
Description: as §1

Progesterone PR-B = molecular target: T7, Progesterone PR-B (Homo sapiens, UniProt P06401); assay: Receptor binding 299005
T7 construct: Eurofins (contract assay) 299005
Description: as §1

[3] = test system: Glutamate, NMDA, Phencyclidine; assay: Receptor binding 233000; design: species or system rat; conditions: 10 μM
Description: as §1

dog renal Na,K-ATPase = molecular target: T8, dog renal Na,K-ATPase (Canis lupus familiaris, UniProt P50997); assay: Inhibition of dog renal Na,K-ATPase activity (32P-ATP release); type: biochemical
T8 construct: incubated with 0.3 μg of purified dog kidney enzyme; from tissue; host or cells: dog kidney outer medulla
Description: Kidneys were sliced and the outer medulla was dissected, pooled and suspended (1 g/10 ml) in a sucrose-histidine solution, containing 250 mM sucrose, 30 mM histidine and 5 mM EDTA, pH 7.2 and homogenized. […] The pellet was suspended in the sucrose-histidine buffer and incubated for 20 min with a sodium-dodecyl-sulphate (SDS) solution dissolved in a gradient buffer, containing 25 mM imidazole and 1 mM EDTA, pH 7.5. […] The pellet was suspended in the gradient buffer.
Increasing concentrations of the standard ouabain, or tested compound, were incubated with 0.3 μg of purified dog kidney enzyme for 10 min at 37° C. in 120 μl final volume of a medium, containing 140 mM NaCl, 3 mM MgCl2, 50 mM Hepes-Tris, 3 mM ATP, pH 7.5. […] The inhibitory activity was expressed as percent of the control samples carried out in the absence of ouabain or tested compound.

Insulin = molecular target: T9, Insulin (Rattus norvegicus, UniProt P15127); assay: Receptor binding 243000
T9 construct: Eurofins (contract assay) 243000
Description: as §1

HMG-CoA Reductase = molecular target: T10, HMG-CoA Reductase (Homo sapiens, UniProt P04035); assay: Eurofins panel 124010; type: biochemical
T10 construct: Eurofins 124010

guinea pig = assay: Haemodynamics: inotropic and lethal dose in guinea pig; type: in vivo; conditions: for E max % increase in dP/dtmax: 90 min; for ED max: cumulative dose
Description: Guinea-pigs (400-450 g) were anaesthetized with urethane (1.5 g/kg ip). A microtip pressure transducer was introduced into the left ventricle through the right carotid artery to measure ventricular pressure (LVP); the transducer was coupled with a transducer amplifier. Recordings were fed to a polygraph and analyzed. A polythene cannula was inserted into a jugular vein for drug infusion. After a stabilization period, the test substance was injected at the rate of 0.16 ml/min for 90 min (Micheletti R et al. J Pharmacol Exp Ther 2002; 303:592-600).
The following parameters were obtained: heart rate (HR), left ventricular pressure (LVP), maximal velocity of pressure rise (+dP/dtmax) and decay (−dP/dtmax), ECG. For inotropy, the time elapsed until +dP/dtmax increased by 80% was identified in order to determine the ED80 (dose increasing basal +dP/dtmax by 80%). The time to the maximum increase in +dP/dtmax was also identified to determine the maximum effective dose, EDmax. Lusitropy was characterized by the dose inducing the maximum decrease in −dP/dtmax, (EDmax). As indexes of toxicity, the dose administered until the onset of arrhythmias and the dose inducing death (LD) were calculated. The safety ratio for the tested compound was also calculated as the ratio between LD and ED80.

Androgen (Testosterone) = assay: Receptor binding 206000; design: species or system human; conditions: 10 μM
Description: as §1

T1 sequence (P35462 whole entry): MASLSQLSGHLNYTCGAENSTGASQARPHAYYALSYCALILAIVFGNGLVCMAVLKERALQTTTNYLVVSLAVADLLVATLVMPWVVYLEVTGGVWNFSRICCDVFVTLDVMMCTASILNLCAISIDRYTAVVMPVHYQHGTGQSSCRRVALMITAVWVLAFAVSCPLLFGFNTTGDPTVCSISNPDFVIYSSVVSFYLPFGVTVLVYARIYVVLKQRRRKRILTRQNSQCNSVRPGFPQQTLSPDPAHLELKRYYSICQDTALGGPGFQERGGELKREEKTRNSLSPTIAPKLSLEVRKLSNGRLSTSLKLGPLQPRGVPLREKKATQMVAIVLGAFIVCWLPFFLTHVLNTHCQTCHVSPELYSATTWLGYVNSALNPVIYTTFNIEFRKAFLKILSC
T10 sequence (P04035 426-888 limits assumed): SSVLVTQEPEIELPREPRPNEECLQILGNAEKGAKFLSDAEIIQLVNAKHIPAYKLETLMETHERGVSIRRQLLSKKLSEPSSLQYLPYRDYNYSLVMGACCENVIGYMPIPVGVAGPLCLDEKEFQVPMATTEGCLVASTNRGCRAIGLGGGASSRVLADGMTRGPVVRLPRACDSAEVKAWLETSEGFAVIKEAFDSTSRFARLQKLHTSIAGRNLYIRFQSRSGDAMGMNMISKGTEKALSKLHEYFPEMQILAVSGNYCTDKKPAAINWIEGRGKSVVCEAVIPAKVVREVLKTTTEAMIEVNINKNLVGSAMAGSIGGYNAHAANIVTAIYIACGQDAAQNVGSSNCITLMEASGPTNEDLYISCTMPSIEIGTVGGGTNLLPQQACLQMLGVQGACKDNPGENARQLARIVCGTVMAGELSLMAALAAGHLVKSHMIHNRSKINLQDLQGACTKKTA
T3 sequence (Q5BJF2 whole entry): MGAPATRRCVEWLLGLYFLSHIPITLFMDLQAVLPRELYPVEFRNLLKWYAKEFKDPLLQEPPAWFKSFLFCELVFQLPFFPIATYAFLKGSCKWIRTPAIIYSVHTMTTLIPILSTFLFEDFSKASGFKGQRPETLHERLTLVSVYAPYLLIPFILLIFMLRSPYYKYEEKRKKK
T4 sequence (P21397 whole entry): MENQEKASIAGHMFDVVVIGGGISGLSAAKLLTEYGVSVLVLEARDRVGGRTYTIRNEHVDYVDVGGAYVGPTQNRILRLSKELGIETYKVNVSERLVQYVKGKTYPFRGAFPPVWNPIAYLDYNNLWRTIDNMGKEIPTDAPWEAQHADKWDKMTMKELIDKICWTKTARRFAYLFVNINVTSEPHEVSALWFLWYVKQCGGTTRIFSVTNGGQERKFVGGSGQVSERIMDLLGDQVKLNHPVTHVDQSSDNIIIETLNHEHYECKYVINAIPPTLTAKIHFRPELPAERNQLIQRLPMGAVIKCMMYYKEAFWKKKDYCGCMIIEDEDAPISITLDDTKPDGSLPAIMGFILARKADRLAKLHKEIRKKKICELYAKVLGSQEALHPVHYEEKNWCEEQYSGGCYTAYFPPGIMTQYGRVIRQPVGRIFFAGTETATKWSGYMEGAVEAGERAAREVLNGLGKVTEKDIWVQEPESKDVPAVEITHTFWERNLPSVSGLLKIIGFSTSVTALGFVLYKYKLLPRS
T5 sequence (P12822 34-1310): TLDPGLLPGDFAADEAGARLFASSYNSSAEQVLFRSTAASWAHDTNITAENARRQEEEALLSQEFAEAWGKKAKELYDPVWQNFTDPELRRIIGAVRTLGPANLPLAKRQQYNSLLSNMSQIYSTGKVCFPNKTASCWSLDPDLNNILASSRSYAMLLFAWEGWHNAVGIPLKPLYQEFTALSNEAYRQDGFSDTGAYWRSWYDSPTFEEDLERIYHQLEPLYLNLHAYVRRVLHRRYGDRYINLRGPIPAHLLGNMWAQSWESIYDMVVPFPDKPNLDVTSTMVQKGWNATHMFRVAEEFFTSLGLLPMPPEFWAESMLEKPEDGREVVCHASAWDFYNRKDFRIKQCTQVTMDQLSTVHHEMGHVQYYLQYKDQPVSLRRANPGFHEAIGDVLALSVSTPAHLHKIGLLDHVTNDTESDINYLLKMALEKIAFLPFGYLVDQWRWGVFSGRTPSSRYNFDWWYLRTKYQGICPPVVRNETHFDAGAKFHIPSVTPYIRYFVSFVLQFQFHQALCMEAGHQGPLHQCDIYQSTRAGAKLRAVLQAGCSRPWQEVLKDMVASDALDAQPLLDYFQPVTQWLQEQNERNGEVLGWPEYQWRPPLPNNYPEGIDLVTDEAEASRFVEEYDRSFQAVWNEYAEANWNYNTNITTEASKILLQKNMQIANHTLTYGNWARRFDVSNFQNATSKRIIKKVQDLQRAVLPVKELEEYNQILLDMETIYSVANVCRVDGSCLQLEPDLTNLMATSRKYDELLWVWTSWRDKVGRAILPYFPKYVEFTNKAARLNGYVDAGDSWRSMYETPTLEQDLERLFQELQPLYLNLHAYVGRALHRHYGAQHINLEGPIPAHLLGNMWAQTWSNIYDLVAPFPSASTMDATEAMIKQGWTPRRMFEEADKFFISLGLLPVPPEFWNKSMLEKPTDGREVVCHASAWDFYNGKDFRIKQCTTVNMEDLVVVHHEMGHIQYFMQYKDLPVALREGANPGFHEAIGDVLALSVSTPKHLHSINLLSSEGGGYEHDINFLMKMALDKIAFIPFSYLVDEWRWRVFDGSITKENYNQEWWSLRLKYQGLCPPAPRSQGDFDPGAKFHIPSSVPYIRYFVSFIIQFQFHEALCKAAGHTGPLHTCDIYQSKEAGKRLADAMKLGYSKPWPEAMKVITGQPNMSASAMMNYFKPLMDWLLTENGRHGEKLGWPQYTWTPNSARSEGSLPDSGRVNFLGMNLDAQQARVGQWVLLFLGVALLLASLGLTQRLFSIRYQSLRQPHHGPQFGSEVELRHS
T2 sequence (P07550 whole entry): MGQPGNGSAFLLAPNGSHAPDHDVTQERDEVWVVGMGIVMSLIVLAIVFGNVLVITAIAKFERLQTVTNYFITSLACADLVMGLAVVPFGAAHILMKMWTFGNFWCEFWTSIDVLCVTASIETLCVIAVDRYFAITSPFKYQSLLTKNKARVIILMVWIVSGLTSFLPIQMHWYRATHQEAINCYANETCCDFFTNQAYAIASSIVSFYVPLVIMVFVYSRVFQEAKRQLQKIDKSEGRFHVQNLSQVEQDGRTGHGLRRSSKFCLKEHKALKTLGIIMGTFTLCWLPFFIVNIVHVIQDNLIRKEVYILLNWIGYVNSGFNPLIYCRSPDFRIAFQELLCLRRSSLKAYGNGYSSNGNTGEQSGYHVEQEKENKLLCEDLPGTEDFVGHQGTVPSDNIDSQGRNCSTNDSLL
T6 sequence (P08913 whole entry): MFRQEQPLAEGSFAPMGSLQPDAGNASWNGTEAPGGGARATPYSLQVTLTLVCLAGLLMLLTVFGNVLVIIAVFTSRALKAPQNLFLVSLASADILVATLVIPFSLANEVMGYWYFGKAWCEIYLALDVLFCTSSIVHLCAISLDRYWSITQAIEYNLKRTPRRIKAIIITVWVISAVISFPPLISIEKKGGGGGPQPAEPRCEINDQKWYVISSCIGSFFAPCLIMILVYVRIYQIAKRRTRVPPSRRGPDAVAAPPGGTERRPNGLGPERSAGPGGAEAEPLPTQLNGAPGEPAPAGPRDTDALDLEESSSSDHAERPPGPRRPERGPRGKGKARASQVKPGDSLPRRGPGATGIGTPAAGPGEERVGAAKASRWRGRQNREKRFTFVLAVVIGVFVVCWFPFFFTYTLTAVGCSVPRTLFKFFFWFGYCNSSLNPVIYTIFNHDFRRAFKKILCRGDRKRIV
T7 sequence (P06401 whole entry): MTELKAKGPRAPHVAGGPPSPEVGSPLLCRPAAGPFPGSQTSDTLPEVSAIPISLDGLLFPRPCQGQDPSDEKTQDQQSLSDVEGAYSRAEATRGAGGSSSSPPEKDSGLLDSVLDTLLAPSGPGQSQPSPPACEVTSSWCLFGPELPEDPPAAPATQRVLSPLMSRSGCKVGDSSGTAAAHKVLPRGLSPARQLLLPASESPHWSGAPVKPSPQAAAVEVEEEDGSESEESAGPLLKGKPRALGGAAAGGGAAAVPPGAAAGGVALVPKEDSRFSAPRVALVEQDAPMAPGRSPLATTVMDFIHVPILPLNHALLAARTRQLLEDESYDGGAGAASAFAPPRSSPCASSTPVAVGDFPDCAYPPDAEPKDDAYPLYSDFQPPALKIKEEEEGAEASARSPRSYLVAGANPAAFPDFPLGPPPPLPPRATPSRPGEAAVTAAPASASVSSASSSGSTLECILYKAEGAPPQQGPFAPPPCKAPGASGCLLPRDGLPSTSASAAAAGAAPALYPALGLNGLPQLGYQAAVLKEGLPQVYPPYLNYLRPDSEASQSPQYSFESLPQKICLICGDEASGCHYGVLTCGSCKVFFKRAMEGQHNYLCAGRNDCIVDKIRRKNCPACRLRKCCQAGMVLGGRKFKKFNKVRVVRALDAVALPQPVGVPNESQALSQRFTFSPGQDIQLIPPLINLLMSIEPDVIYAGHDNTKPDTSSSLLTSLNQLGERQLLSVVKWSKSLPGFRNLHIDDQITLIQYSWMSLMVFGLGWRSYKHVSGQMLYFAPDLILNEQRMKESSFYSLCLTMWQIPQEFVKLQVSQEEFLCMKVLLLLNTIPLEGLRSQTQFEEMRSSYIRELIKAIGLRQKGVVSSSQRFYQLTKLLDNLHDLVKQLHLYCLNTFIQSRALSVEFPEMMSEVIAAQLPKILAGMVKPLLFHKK

`C[C@]12CC[C@H](O)C[C@H]1CCC1C2CC[C@]2(C)[C@@H](c3c[nH]cn3)CC[C@]12O` (stereo partly drawn) [CVie 101, 3β-hydroxy-5β-10β-methyl-13β-methyl-14β-hydroxy-17β-(imidazol-4-yl)androstane] was tested, and the inhibition at 10 µM (Dopamine D3) was 7%, the inhibition at 10 µM (Adrenergic β2) was 1% and the “rate of Ca2+ transient (CaT) increment during SR reloading” value ([1]; FIG. 1A, 1C) was “increased”. The “time constant of cytosolic Ca2+ decay within each pulse (τdecay)” value ([1]; FIG. 1B, 1D) was “decreased”, the inhibition at 10 µM (Sigma σ2) was 30% and the inhibition at 10 µM (Monoamine Oxidase MAO-A) was 4%. For the same molecule, the inhibition at 10 µM [2] was 5%, the inhibition at 10 µM (Adrenergic α2A) was -7% and the inhibition at 10 µM (Progesterone PR-B) was 10%. For the same molecule, the “% inhib” value [3] was 7%, the IC50 (dog renal Na,K-ATPase) was 710 nM and the inhibition at 10 µM (Insulin) was -7%. The inhibition at 10 µM (HMG-CoA Reductase) was 7%, the Dead/treated number (guinea pig; i.v. infusion 0.2 mg/kg/min) was 1/8 and the ED80 (guinea pig; i.v. infusion 0.2 mg/kg/min) was 1.6 mg/kg and 1.60 mg/kg. The Lethal dose (guinea pig; i.v. infusion 0.2 mg/kg/min) was greater than 18 mg/kg, the “E max % increase in dP/dtmax” value (guinea pig; i.v. infusion 0.2 mg/kg/min) was 163.6% and the ED max (guinea pig; i.v. infusion 0.2 mg/kg/min) was 3.73 mg/kg. The Dead/treated number (guinea pig; i.v. infusion 0.5 mg/kg/min) was 8/8, the ED80 (guinea pig; i.v. infusion 0.5 mg/kg/min) was 2.74 mg/kg and the Lethal dose (guinea pig; i.v. infusion 0.5 mg/kg/min) was 28.2 mg/kg. For the same molecule, the “E max % increase in dP/dtmax” value (guinea pig; i.v. infusion 0.5 mg/kg/min) was 216.8%, the ED max (guinea pig; i.v. infusion 0.5 mg/kg/min) was 5.08 mg/kg and the LD/ED80 (guinea pig; i.v. infusion 0.5 mg/kg/min, safety ratio) was 11.32. The “% inhib” value (Androgen (Testosterone)) was 1%.
